{"source": "paper PMC7321301", "about": "“Characteristics of New Peptides GQLGEHGGAGMG, GEHGGAGMGGGQFQPV, EQGFLPGPEESGR, RLARAGLAQ, YGNPVGGVGH, and GNPVGGVGHGTTGT as Inhibitors of Enzymes Involved in Metabolic Syndrome and Antimicrobial Potential” (Molecules, 2020)", "origin": "cited, not measured here", "key": {"ACE": {"tested_on": "ACE", "conditions": "cited from earlier work"}, "α-amylase": {"tested_on": "α-amylase", "conditions": "no reference given; cited from earlier work"}}, "note": "Like-named read-outs stand apart in the source and are kept apart here. No end group written: not given here.", "data": [{"compound": "GKHVAVHAR [GHA-8]", "values": [{"measurement": "ACE inhibitory activity", "setting": "ACE", "result": "exhibited ACE inhibitory activity"}]}, {"compound": "AFKDEDTEEVPFR", "values": [{"measurement": "ACE inhibitory IC50", "setting": "ACE", "result": 127, "unit": "µg/mL"}]}, {"compound": "C[C@H](CS)C(=O)N1CCC[C@H]1C(=O)O", "note": "[Captropril]", "values": [{"measurement": "type of ACE inhibition", "setting": "ACE", "result": "competitive inhibitor"}]}, {"compound": "C[C@H]1O[C@H](O[C@H]2[C@H](O)[C@@H](O)[C@@H](O[C@H]3[C@H](O)[C@@H](O)C(O)O[C@@H]3CO)O[C@@H]2CO)[C@H](O)[C@@H](O)[C@@H]1N[C@H]1C=C(CO)[C@@H](O)[C@H](O)[C@H]1O", "note": "(stereo partly shown) [acarbose]", "values": [{"measurement": "type of α-amylase inhibition", "setting": "α-amylase", "result": "competitive inhibition"}]}, {"compound": "GKPVAVPA [GA-8]", "values": [{"measurement": "ACE inhibitory activity", "setting": "ACE", "result": "exhibited ACE inhibitory activity"}]}, {"compound": "TTFHTSGY", "values": [{"measurement": "type of ACE inhibition", "setting": "ACE; inhibition kinetic analysis", "result": "competitive inhibitor"}]}, {"compound": "Thα1: peptide Thα1, ACE inhibitory, from another study (SDAAVDTSSEITTKDLKEKKEVVEEAEN; ends and bridges not checked; UniProt P06454 2-29, looked up)", "values": [{"measurement": "ACE inhibitory IC50", "setting": "ACE", "result": 2.5, "unit": "µg/mL"}]}]}
